Where a name gives a salt, the structure may show the parent alone. Read-outs that look alike come from different tables or passages of the source.
Key:
[1] = Determination of solubility in different solvents (shaken 24 h, HPLC); type: physicochemical; conditions: 25 °C, thermodynamic from solid, mean ± SD
Method: Then they were shaken for 24 h with 100 rpm at 25°C. At last, the supernatant was directly injected into HPLC after high speed centrifugation (3,000 rpm for 10 min).

[2] = 25°C; ref Marco-Contelles et al., 2005; Saigal et al., 2013; cited from earlier work
[3] = In vivo drug release / pharmacokinetics, plasma galantamine by HPLC-ESI-MS/MS; design: species or system Sprague-Dawley (SD) rats; AUC0-t / AUC0-∞: unit not given here; conditions: 24 mg/kg
Method: Healthy Sprague-Dawley (SD) rats weighing 200–210 g were supplied by the Experimental Animal Breeding Center of Jinan Pengyue Co., Ltd. (Jinan, China). Before the drug administration, all rats were fasted for 12 h. But they were free access to diet and water throughout the study ([Zhang et al., 2019]). This study conformed to the Guide for the Care and Use of Laboratory Animals.
The study groups were carried out with twelve rats, which were randomly divided into two groups each with six rats. […] The blood samples of both groups were obtained via the orbital venous plexus and collected into heparinized tubes before and after dosing at 1 h, 3 h, 6 h, 12 h, 1 day, 2 days, 3 days, 4 days, 6 days, 8 days, 10 days, 12 days, […], 16 days, 18 days, 20 days. Other eighteen rats were randomly divided into the placebo group, negative group and oral administration group of six rats each. The placebo group received […] microspheres suspension in diluent at a single dose of 20 mg/kg by i.m., and the blood samples of this group were obtained the same as group I. The negative group was also carried out without any treatment, and the blood samples of this group were obtained the same as group I. The oral administration group was performed with GLT-PM (24 mg/kg), which was infused to stomach of rats. The blood samples of oral administration group were obtained before and after dosing at 15 min, 30 min, 45 min, 1 h, 1.5 h, 2 h, 3 h, 4 h, 6 h, 8 h, 12 h, 24 h, 48 h, 72 h. All blood samples were centrifuged immediately at 4,500 rpm for 10 min, and the plasma samples were separated into EP tubes and stored at −80°C until analysis ([Jiang et al., 2014]; [Zhang et al., 2019]).
After thawing at room temperature, 50 μL plasma samples were separately added into a […] centrifuge tube with the addition of 150 μL of acetonitrile. This mixture was vortex mixed for 1 min and centrifuged at 12700 rpm for 10 min. Then 100 μL supernate was mixed with 100 μL deionized water, and they was injected into vials for analysis ([Zhang et al., 2019]).
AB Sciex QTrap 6,500 + triple-quadrupole tandem mass spectrometer (Applied Biosystem Inc., Foster City, Calif, United States) was connected to Waters Acquity UPLC H-Class HPLC system (Waters Inc., Milford, Massachusetts, United States) via electro-spray ionization (ESI) interface. LC separation was performed on a Waters BEH C8 column (2.1 × 50 mm I.D., 1.7 μm) with mobile phase A (1 mmol/L ammonium acetate solution) and phase B (mixture of acetonitrile and methanol, 4:1, v/v) at 40°C, which was used with gradient elution as shown in Table 2 ([Suresha et al., 2014]). Quantitative analyses were performed in positive ion mode on a 6500 Q-trap mass analyzer (AB Sciex, Framingham, MA) coupled with electrospray ion source. Multiple reaction monitoring (MRM) mode was used for the quantification with ion spray voltage set at 5500 V, curtain gas 35 psi, […], and the interface heater temperature 450°C. […]
The plasma concentration-time data were analyzed with non-compartmental model by Phoenix WinNonlin 8.1 software (Pharsight Corporation, United States) to obtain the pharmacokinetic parameters, which included the area under the plasma concentration-time curve (AUC), half-life (T1/2) and mean residence time (MRT). The maximum plasma drug concentration (Cmax) and the time required to reach Cmax (Tmax) were directly read from the plasma concentration-time data.

[4] = n = 3, read-out: Solubility, benzyl alcohol
[5] = n = 3, read-out: Solubility, deionized water
[6] = n = 3, read-out: Solubility, dichloromethane
[7] = n = 3, read-out: Solubility, methanol
[8] = Oral administration: rats, plasma galantamine
[9] = Sprague-Dawley, rat, plasma, po

SMILES | solubility at 24 h [1, 4] [µg/mL] | solubility at 24 h [1, 5] [µg/mL] | solubility at 24 h [1, 6] [µg/mL] | solubility at 24 h [1, 7] [µg/mL] | Solubility [2] [µg/mL] | AUC0-t [3, 8] | AUC0-∞ [3, 8] | Cmax [3, 9] [ng/mL] | Tmax [3, 9] [h] | half-life [3, 9] [h]
COc1ccc2c3c1O[C@H]1C[C@@H](O)C=C[C@@]31CCN(C)C2 [Galantamine hydrobromide, reference compound] | 1570 ± 190 | 4320 ± 370 | 320 ± 30 | 820 ± 90 | 5170 |  |  |  |  | 
COc1ccc2c3c1O[C@H]1C[C@@H](O)C=C[C@@]31CCN(C)C2.COc1ccc2c3c1O[C@H]1C[C@@H](O)C=C[C@@]31CCN(C)C2.O=C(O)c1cc2ccccc2c(Cc2c(O)c(C(=O)O)cc3ccccc23)c1O [GLT-PM, galantamine pamoate] | 357300 ± 210 | 200 ± 20 | 8720 ± 520 | 1010 ± 210 |  | 532.54 ± 73.08 | 532.91 ± 72.92 | 119 ± 44.6 | 0.96 | 4.32

Source: article PMC7982595 (Frontiers in Pharmacology, 2021)
